Measurements as given in patent publication US6406917B1, “Methods and compositions for the use of apurinic/apyrimidinic endonucleases” (Advanced Research And Technology Institute, priority 1996, dated 2002).

Assays:
Assay type in all cases: cell-based, human
[1] = tested on: HL-60 cells; test: DNA fragmentation / apoptosis, fluorescein TUNEL assay; settings: for % fluorescein positive (TUNEL): HL-60 + DMSO
Description: Over-expression of bcl-2 depresses the baseline apoptosis to less than 1% (FIG. 8). […] The high level expression of bcl-2 in HL-60-bcl-2 cells appears to be responsible for not only the block in apoptosis (Park et al., 1994), but also the failure to downregulate expression of APE with induction of differentiation. […] This leads to the conclusion that the decrease in expression of APE observed on Northern and Western blot (FIG. 6) in induced HL-60 cells is associated with programmed cell death.
(§1) To determine if the cells undergoing apoptosis were also the cells downregulating APE, double labeling experiments were performed on a 50:50 mix of untreated and RA treated (6 days, 10^−5 M) HL-60 cells (FIG. 9A). Cytocentrifuge preparations were stained for 1) fragmented DNA using fluorescein-dUTP in the TUNEL assay (FIG. 9C) and 2) APE using polyclonal rabbit anti-APE with a rhodamine labeled goat anti-rabbit secondary antibody (FIG. 9B). Cells undergoing apoptosis fluoresce ‘green’ and cells expressing APE fluoresce ‘red’. […] Conversely, TUNEL negative cells, not undergoing apoptosis, stained strongly positive for APE. Thus, HL-60 cells undergoing apoptosis appear to lose expression of APE.
(§2) The inventor further characterized the temporal decline in APE expression to see if it was an early event in programmed cell death or if the decline coincided with fragmentation of DNA (TUNEL assay); the inventor assayed APE expression and DNA fragmentation on cytospun preparations of cells after exposure to DMSO. The expression of APE started to fall with fewer rhodamine positive cells after 2 days of DMSO while statistically significant evidence of fragmented DNA was not apparent until after 4-6 days (Table 7, FIG. 8). A similar pattern was observed, but not as rapid a loss of APE expression, after exposure to RA or PMA. Thus the decrease in APE expression associated with programmed cell death appears to be an early event occurring before the final pathologic consequences of DNA fragmentation in apoptosis.

[2] = tested on: HL-60-bcl-2 cells; test: Western blot of APE protein expression after differentiation induction; settings: 10^-5 M RA, 1.25% DMSO or 100 nM PMA, compared to parental HL-60
Description: (§3) FIG. 7A and FIG. 7B: Expression of APE in HL-60-bcl-2 cells. FIG. 7A, HL-60-bcl-2 cells at 0, 2, 4, and 6 days after treatment with 10^−5 M RA or 1.25% DMSO, Western blot (top) probed with an affinity purified polyclonal rabbit anti-APE antibody. Northern blots (middle and bottom) probed for the 1.6 Kb APE and GAPDH transcripts. FIG. 7B, HL-60-bcl-2 cells treated with 100 nM PMA.
(§4) To ascertain whether APE expression was associated with differentiation or programmed cell death, the inventor blocked apoptosis by over-expression of the proto-oncogene bcl-2 using HL-60 cells transduced with the retroviral construct LbcI2SN (Park et al, 1994). […] The apparent decrease in APE transcript expression after 6 days exposure to RA or DMSO results from loading differences as evidenced by the GAPDH Northern control blot (FIG. 7). […] Thus constitutive expression of bcl-2 inhibits the decrease in APE expression as well as programmed cell death normally observed with granulocytic or monocytic/macrophage induced differentiation of HL-60 cells.

[3] = tested on: HL-60-bcl-2 cells; test: Northern blot of APE mRNA after differentiation induction; settings: 10^-5 M RA, 1.25% DMSO or 100 nM PMA
Description: as §3, §4

[4] = tested on: HL-60 cells; test: APE expression on cytospun cells, rhodamine-labeled anti-APE staining; settings: for % rhodamine positive (APE): HL-60 + DMSO
Description: as §1, §2

[5] = tested on: HL-60 cells; test: Western blot of APE protein expression after differentiation induction
Description: (§5) FIG. 6A and FIG. 6B: Expression of APE in HL-60 cells. FIG. 6A, HL-60 cells at 0, 2, 4, and 6 days after treatment with 10^−5 M RA or 1.25% DMSO, Western blot (top) probed with an affinity purified polyclonal rabbit anti-APE antibody which detects the 37,000 Daltons human APE. Northern blots (middle and bottom) probed for the 1.6 Kb APE mRNA and GAPDH transcripts. FIG. 6B, HL-60 cells treated with 100 nM PMA.
Western blot analysis was performed as has been previously described (Wilson et al., 1994; 1995, FIG. 16). Whole cell extracts were electrophoresed on a 12% SDS-PAGE and electroblotted onto 0.2 micron nitrocellulose. The filter was incubated in blocking buffer which contains 5% non-fat milk for 1 hour. Next, the antibody (affinity purified APE) was diluted to the appropriate concentration (1:100) and incubated with the filter overnight at 4° C. The filter was washed in 1×TBST and incubated in TBST containing 5% milk and cross-reacting proteins were detected using the Chemiluminescence Western Blotting Kit from Boehringer-Mannheim (Indianapolis, Ind.) as directed. Western blot analysis of HeLa cell (human) or NIH3T3 (mouse) cells using antibody produced in rabbits or chickens are shown in FIG. 16. The antibodies were affinity purified and only a single cross-reacting protein is visible in the human or mouse cells. […]

[6] = tested on: HL-60 cells; test: Northern blot of APE transcript after differentiation induction
Description: as §5
To investigate possible changes in expression of the DNA repair enzyme APE in differenntiating myeloid cells, the inventor utilized Northern and Western blot analysis with the HL-60 myeloid leukemia cell line, which can be induced to terminally differentiate into mature granulocytes or monocyte/macrophage (Collins, 1987). […] To determine whether the decrease in APE expression was confined to granulocytic differentiation, HL-60 cells were induced down the monocyte/macrophage pathway with PMA.

[7] = tested on: HL-60-bcl-2 cells; test: Viability of RA-induced granulocytes (trypan blue dye exclusion); settings: HL-60+Lbcl2SN cells treated with RA, compared to parental HL-60 cells
Description: FIG. 10A and FIG. 10B: Enhanced viability of HL-60-bcl-2 granulocytes. HL60 and HL-60-bcl-2 cells were induced with RA (1 μmol/L) which was added at day 0. At the indicated days after RA treatment (FIG. 10A), cell number was determined using a hemocytometer chamber and (FIG. 10B) percentage of cell viability was determined by trypan blue dye exclusion. The indicated points represent the mean of triplicate experiments (▴) HL-60 wt; (◯) HL-60 Bcl2.
To determine whether cell differentiation and apoptosis were closely linked processes that could not be separated, the inventor over expressed the proto-oncogene bcl-2 in HL-60 cells to block apoptosis the 1.9 kB cDNA of bcl-2 was subcloned into the retroviral vector LXSN to produce Lbcl2SN. The ecotropic packaging cell line PE501 was transfected and used to transduce the amphotropic packaging cell line PA317. High titer clones of PA317+Lbcl2SN were selected for transduction of HL-60 cells to produce HL-60+Lbcl2SN. Several clones were screened by Northern blot analysis and one clone with high bcl-2 expression was chosen for study. […] These cells were assayed for programmed cell death using the TUNEL reaction to score individual cells and the diphenylamine assay to determine the total amount of DNA undergoing fragmentation. […] Thus myeloid cell differentiation and apoptosis are independent processes that can be separated.

[8] = tested on: HL-60-bcl-2 cells; test: RA-induced differentiation (morphology, CD11b, NBT reduction)
[9] = tested on: HL-60 cells; test: as above
[10] = after 1 hour of TPA stimulation
[11] = arbitrary log scale 0 to 200, 18.5 U = doubling

SMILES | % fluorescein positive (TUNEL) ([1]; 2 days) | % fluorescein positive (TUNEL) ([1]; 4 days) | % fluorescein positive (TUNEL) ([1]; 6 days) | time after which statistically significant evidence of fragmented DNA became apparent ([1]; HL-60, DMSO) | APE protein expression (Western blot) [2] | APE mRNA expression (Northern blot) [3] | % rhodamine positive (APE) ([4]; 2 days) | % rhodamine positive (APE) ([4]; 4 days) | time after which expression of APE started to fall (fewer rhodamine positive cells) ([4]; HL-60, DMSO) | APE protein expression (Western blot) ([5]; 10^-5 M RA or 1.25% DMSO, over 6 days, compared to ethanol treated controls) | APE transcript expression (Northern blot) ([6]; granulocytic induction with 10^-5 M RA or 1.25% DMSO, 0-6 days) | APE protein expression (Western blot) ([5]; 100 nM PMA, after two days exposure) | APE transcript expression (Northern blot) ([6]; 100 nM PMA) | survival of mature granulocytes [7] | NBT (+), percentage of cells containing blue-black formazan deposits [8, 10] | CD11b (+), relative mean fluorescence [8, 11] | NBT (+), percentage of cells containing blue-black formazan deposits [9, 10] | CD11b (+), relative mean fluorescence [9, 11]
C[S+](C)[O-] [DMSO] | 2.7% | 2.3% | 7% | 4 to 6 days | continuous expression | similarly maintained | 34% | 0% | 2 days | nearly undectable | more rapid decrease to a lower level | – | – | – | – | – | – | –
CCCCCCCCCCCCCC(=O)O[C@@H]1[C@@H](C)[C@@]2(O)[C@@H](C=C(CO)C[C@]3(O)C(=O)C(C)=C[C@@H]23)[C@@H]2C(C)(C)[C@]12OC(C)=O [PMA] | – | – | – | – | continuous expression | continuous expression | – | – | – | – | – | decreased to a very low level | Decreased expression | – | – | – | – | –
CC1=C(/C=C/C(C)=C/C=C/C(C)=C/C(=O)O)C(C)(C)CCC1 [RA, Retinoic Acid] | – | – | – | – | – | – | – | – | – | – | – | – | – | up to 40 days | >90% | 107.9 U | >90% | 105.4 U
